US6716829B2, “Aldosterone antagonist and cyclooxygenase-2 inhibitor combination therapy to prevent or treat inflammation-related cardiovascular disorders” (Pharmacia Corporation, priority 2000, dated 2004)
“And” between values parts separate entries of the source, which are not always exact repeats. Identical values can stand only once.

Tests used:
cyclooxgenase-2 = experiment: Assay A: immunostaining of hearts with cyclooxygenase-2 specific antibody; assay type: in vivo, Male Wistar rats; details: angiotensin II infused rats, eplerenone 100 mpk, aldosterone replacement in adrenalectomized rats
Description: Cycloxygenase-2 staining was also observed in the vascular smooth muscle cells of the media of coronary arteries, even when there was no evidence of morphologic alterations or inflammatory aggregates in the perivascular space (FIG. 26).

interstitial collagen = experiment: Assay C: image analysis of interstitial collagen (Picrosirius Red), collagen volume fraction; assay type: in vivo, Male Sprague-Dawley rats; details: for ICVF (%): interstitial collagen volume fraction, eplerenone dose 100 mg/kg/day
Description: The procedure of Assay B was expanded upon in a further study. […] Myocardial tissue from animals in each treatment group was examined after 7, 14, or 30 days of treatment. […] Lesions were preceded by the expression and progressive upregulation of proinflammatory molecules. […] Prior to surgery the animals were individually weighed and placed in one of the following groups: […] Potassium chloride supplementation was added to the saline solution in order to prevent the potential hypokalemia associated with aldosterone excess. […] Louis, Mo.) was inserted subcutaneously at the nape of the neck. Aldosterone was administered at a dose of 0.75 µg/hour. […] Animals were sacrificed from each group (n=8-13) after 7, 14, or 30 days of treatment. The equatorial regions of the heart were routinely processed into paraffin with an automated tissue processor (Hypercenter XP, Shandon/Lipshaw Inc., Pittsburgh, Pa.) and embedded into fresh paraffin apical side down (Shandon Embedding Center, Shandon/Lipshaw Inc.). Five and 10 µm sections were cut from each block of tissue using a Leica RM2035 rotary microtome (Leica Inc., Houston, Tex.) and mounted on Superfrost/Plus microscope slides (Fisher Scientific, Pittsburgh, Pa.). Ten […]m sections were stained with the collagen specific stain, Picrosirius Red F3BA (Saturated Picric Acid (Sigma Chemical, St. […] Waterbury, Conn.) (6). Mounted tissues were hydrated with water. […] Slides were coverslipped with #1 cover glass using Permount Histological Mounting Media (Fisher Scientific). Two slides mounted with 5 µm sections were cut for each animal. One slide was processed for H&E staining and one for Periodic Acid Schiff (PAS) staining. The H&E and PAS were used for pathological scoring of the hearts. Picrosirius Red F3BA stained slides were used to quantify interstitial collagen with a Videometric 150 Image Analysis System (Oncor Inc., Gaitherburg, Md.). […] Garden City, N.Y.) attached to a Nikon Optiphot microscope (Nikon Inc.). A Toshiba 3 CCD Color Video Camera (Model#[…] Corp. Japan) relayed the images in RGB format from the microscope to a 386 computer with a […] video board. The […] video board/[…] software application (Oncor Inc.) converted RGB images to HIS (Hue, Intensity, Saturation) format for display and analysis on a Sony Trinitron Color Video Monitor (Model#PVM-1342Q, Sony Corp, Tokyo, Japan) at a magnification of 305×. […] The […] application then measured only pixels which fell into thresholding limits. The system was calibrated with a micrometer scale (EM Sciences, FT. Washington, Pa. 19034), which allowed data to be expressed in mm^2 or […]m^2.

Collagen III = experiment: Assay C: Collagen III mRNA by TaqMan RT-PCR; assay type: in vivo, Male Sprague-Dawley rats; details: for Collagen-III (AU): collagen type III mRNA relative to cyclophilin, eplerenone dose 100 mg/kg/day
Description: The procedure of Assay B was expanded upon in a further study. […] Myocardial tissue from animals in each treatment group was examined after 7, 14, or 30 days of treatment.
Potassium chloride supplementation was added to the saline solution in order to prevent the potential hypokalemia associated with aldosterone excess.
At the time of the surgery, an Alzet 2002 osmotic minipump (Alza Corp., Palo Alto, Calif.) containing either vehicle (9% ethanol/87% propylene glycol/4% dH2O) or 1.0 mg/mL d-aldosterone (Sigma Chemical, St. Louis, Mo.) was inserted subcutaneously at the nape of the neck. Aldosterone was administered at a dose of 0.75 µg/hour. […] Animals were sacrificed from each group (n=8-13) after 7, 14, or 30 days of treatment.
The fluorogenic 5′-nuclease assay (TaqMan PCR) using Applied Biosystems' 7700 Sequence Detection System (Applied Biosystems, Foster City, Calif.) allowed for real time detection/quantitation of a specific gene by monitoring the increase in fluorescence of a gene-specific, dye-labeled oligonucleotide probe. Probes for target and reference genes were labeled at the 5′-end with a 6-carboxyfluorescein (6FAM) reporter dye and at the 3′-end with a 6-carboxy-N,N,N′,N′-tetramethylrhodamine (TAMRA) quencher dye. When the probe was annealed to the target gene, fluorescence of 6FAM was prevented by the close proximity of TAMRA. The exonuclease activity of Taq polymerase released the dyes from the oligonucleotide probe by displacing the probe from the target sequence resulting in fluorescence excitation in direct proportion to the amount of target message present. Data analysis was performed using the Sequence Detection System software from Applied Biosystems.
Primers and probes were designed using Oligo Primer Analysis Software, Version 5.0 (National Biosciences Inc. (NBI)-Wojciech Rychlik, Cascade, Colo.). Primers were synthesized by Life Technologies (Grand Island, N.Y.) and probes were synthesized by Applied Biosystems. Primer/probe sets were designed from known sequences of rat genes to be analyzed. All target gene values were normalized to a reference gene, constitutively expressed cyclophilin. Primer/probe sets sequences can be found in Table 8
RNA was extracted from frozen (−70° C.) left ventricle (LV) tissue (approximately 10-20 mg) using 1.5 mL RNA-STAT 60 according to manufacturer's instructions (Leedo Medical Laboratories, Inc., Houston, Tex.). Briefly, tissues were homogenized using a tissue homogenizer equipped with a 5 mm probe (Ultra-Turrax T8 Homogenizer, IKA Works, Inc. Wilmington, N.C.). Following homogenization, an equal volume of molecular grade chloroform (Sigma Chemical Co., St. Louis, Mo.) was incubated with periodic mixing for 10 min at room temperature. Samples were centrifuged at 12,000 g for 10 min and RNA was precipitated from the top layer by adding an equal volume of molecular grade isopropanol (Sigma Chemical Co.) followed by an overnight incubation at −80° C. RNA was pelleted by centrifugation at 12,000 g, washed with 75% ethanol, and solubilized in nuclease-free water (Promega, Madison, Wis.).
Double-stranded cDNA was synthesized by adding 400 ng RNA (4 uL) to a final volume of 20 uL containing 15% nuclease-free water (Promega, Madison, Wis.), 1×RT Buffer (Life Technologies, Grand Island, N.Y.), 10 mM DTT (Life Technologies), 0.5 mM each of dATP, dTTP, dGTP, dCTP (PE Biosystems, Foster City, Calif.), 2.5 μM Oligo d(T)15 (Oligo Therapeutics, Inc., Wilsonville, Oreg.), 40 units RNAsin (Promega), and 200 units SuperScript II Reverse Transcriptase (Life Technologies). The reactions were performed in thin-walled reaction tubes with caps (Applied Biosystems) to ensure accurate reaction temperatures.

[1] = group mean, data used for Table 15 (14 days of treatment)
[2] = group mean, data used for Table 16 (30 days of treatment)
[3] = individual rats, data used for Table 15 (14 days of treatment), incl. rat marked * excluded from statistics, listed as Eplerenone + aldosterone + salt
[4] = individual rats, data used for Table 16 (30 days of treatment), incl. rat marked * excluded from statistics, listed as Eplerenone + aldosterone + salt
[5] = mean ± SEM after 7 days of treatment
[6] = mean ± SEM after 14 days of treatment
[7] = mean ± SEM after 30 days of treatment
[8] = individual rats, data used for Table 15 (14 days of treatment), incl. rat marked * excluded from statistics, listed as Aldosterone + salt
[9] = individual rats, data used for Table 16 (30 days of treatment), incl. rat marked * excluded from statistics, listed as Aldosterone + salt

SMILES | Cyclooxygenase-2 expression in the heart (immunostaining) (cyclooxgenase-2) | Cyclooxygenase-2 expression in the heart (immunostaining) (cyclooxgenase-2; listed as eplerenone) | Collagen Volume Fraction (%) (interstitial collagen; [1]) | Collagen Volume Fraction (%) (interstitial collagen; [2]) | Collagen Volume Fraction (%) (interstitial collagen; [3]) | Collagen Volume Fraction (%) (interstitial collagen; [4]) | ICVF (%) (interstitial collagen; [5]) | ICVF (%) (interstitial collagen; [6]) | ICVF (%) (interstitial collagen; [7]) | Collagen-III (AU) (Collagen III; [5]) | Collagen-III (AU) (Collagen III; [6]) | Collagen-III (AU) (Collagen III; [7]) | Collagen-III mRNA (AU) (Collagen III; [1]) | Collagen-III mRNA (AU) (Collagen III; [2]) | Collagen-III mRNA (AU) (Collagen III; [3]) | Collagen-III mRNA (AU) (Collagen III; [4]) | Collagen Volume Fraction (%) (interstitial collagen; [8]) | Collagen Volume Fraction (%) (interstitial collagen; [9]) | Collagen-III mRNA (AU) (Collagen III; [8]) | Collagen-III mRNA (AU) (Collagen III; [9])
COC(=O)[C@@H]1CC2=CC(=O)CC[C@]2(C)[C@@]23O[C@@H]2C[C@@]2(C)[C@@H](CC[C@@]24CCC(=O)O4)[C@H]13 [Eplerenone] | markedly reduced and in most cases completely prevented | prevention | 4.5 | 6.2 | 4.1% and 6.2% and 3.9% and 3.7% (2×) and 4.2% and 3.5% and 3.3% and 5.2% and 5.6% and 6.0% | 3.4% and 5.0% and 6.5% and 7.9% and 7.1% and 6.3% and 6.1% and 5.4% and 7.8% and 4.4% | 5.4 ± 0.6 | 4.5 ± 0.3 | 6.2 ± 0.5 | 1.09± 0.21 | 1.61 ± 0.26 | 1.53 ± 0.23 | 1.61 | 1.53 | 0.60 AU (2×) and 1.19 AU and 1.16 AU and 1.24 AU and 1.70 AU and 1.81 AU and 1.61 AU and 2.21 AU and 1.80 AU and 3.77 AU | 0.95 AU and 0.72 AU and 1.37 AU and 0.89 AU and 1.26 AU and 1.87 AU and 1.66 AU and 2.89 AU and 2.16 AU and 0.73 AU | – | – | – | –
C[C@]12CCC(=O)C=C1CC[C@@H]1[C@@H]2[C@@H](O)C[C@]2(C=O)[C@@H](C(=O)CO)CC[C@@H]12 [Aldosterone] | restored the presence of cycloxygenase-2 | – | 5.1 | 7.9 | – | – | 5.6 ± 0.6 | 5.1 ±0.5 | 7.9 ± 1.0 | 1.42 ± 0.12 | 1.08 ± 0.14 | 1.39 ± 0.20 | 1.08 | 1.39 | – | – | 4.4% and 5.4% and 3.2% (2×) and 5.9% (2×) and 4.6% (2×) and 3.9% and 4.8% and 3.4% and 6.4% and 9.0% | 6.6% and 8.8% and 7.2% (2×) and 7.1% and 9.3% and 6.8% and 4.0% and 14.5% | 0.76 AU and 1.80 AU and 0.44 AU and 1.39 AU and 1.17 AU and 1.24 AU and 1.06 AU and 1.31 AU and 0.59 AU and 1.22 AU | 0.75 AU and 0.58 AU and 1.99 AU and 0.72 AU and 2.04 AU and 1.43 AU and 1.82 AU and 1.89 AU and 1.28 AU
